Reference: US12286453B2, “Methods of sequencing using nucleotides with 3′ acetal blocking group” (ILLUMINA CAMBRIDGE LIMITED, priority 2020, dated 2025)

Assay: Solution cleavage efficiency of palladium reagent formulations (HPLC kinetics)
Format: physicochemical
Settings: 1 mM Pd species, 0.1 mM substrate, RT; 3 or 3.5 equivalents of THP vs 10 equivalents for [(Allyl)PdCl]2
Procedure: The cleavage efficiency was determined by measuring the relative rate of cleavage of a 3′-AOM-nucleotide substrate. Briefly, to a 0.1 mM solution of 3′-AOM-nucleotide substrate in 100 mM buffer was added a stock solution of a palladium reagent to a final concentration of 1 mM in Pd species. The solution was incubated at RT and the reaction kinetic was monitored by taking aliquots from the reaction at set time points, quenching them with a 1:1 solution of EDTA/H2O2 (0.1:0.1 M) and analyzing them by HPLC for the formation of 3′-OH nucleotide and the disappearance of the 3′-AOM nucleotide substrate.

For `[Cl-].[Cl-].[Cl][Pd][Cl].[Na+].[Na+]` [Na2PdCl4], the “cleavage efficiency (relative rate of cleavage)” value was “comparable to that of [(Allyl)PdCl]2”.
